Experimental data published in paper PMC8305076, “Comprehensive Evaluation of Biological Effects of Pentathiepins on Various Human Cancer Cell Lines and Insights into Their Mode of Action” (International Journal of Molecular Sciences, 2021).
Where two headings read alike, the source gives them in different places.

Tests used:
[1] = tested on: panel of 14 human cancer cell lines; assay: MTT cell viability assay, whole panel; format: cell-based; parameters: key to Cytotoxicity: no impact (0); weak impact (+); strong impact (++); details: for Cytotoxicity: summary grade
Experimental: Distinct MTT cell viability and crystal violet cell proliferation assays were performed to assess the cytotoxicity of the compounds 1–6 on 14 human cancer cell lines. In the viability assay, cells with intact mitochondria and thus active dehydrogenases are competent to convert MTT to the corresponding insoluble formazan. The formazan can be photometrically detected after solubilization and allows for indirect conclusions about the viability of the cells as an IC50 value. In the crystal violet assay, cells are stained by the binding of the dye to the chromatin, thus allowing for a quantification of biomass that remains adherent after a treatment in comparison with a control after a specific time. Potency is defined as the growth inhibitory concentration 50% (GI50).
In addition to performing the cell viability assay under normoxia (19% atmospheric oxygen), incubations were also conducted under hypoxic conditions, i.e., atmospheric oxygen levels of 1% during the treatment for 48 h. Hypoxia is a favorable condition of the tumor microenvironment that is connected with poor outcome. Therefore, the low oxygen condition mimics better the tumor environment. The biological effect of the pentathiepins under this condition provides insight into their dependency for oxygen, which has been postulated a key component in the proposed mechanism of action (Figure 3). Consistent with the proposed mechanism of action for five of the compounds, potency decreased under hypoxic conditions; in fact for 6, the half-maximal inhibitory concentration exceeded the highest tested concentration of 10 µM in four cell lines (Figure 6, Table S3). […] In contrast to the other compounds, in some cell lines, the cytotoxic effects of 1 were more pronounced under oxygen-reduced incubation conditions (Figure 6), indicating a tangential role of oxygen availability for this pentathiepin. Especially for the breast cancer cell line MCF-7, the cytotoxicity increased substantially, indicated by a decrease of the IC50 from >10.0 µM to about 1.0 µM.
The effect of the pentathiepins on the viability of the cell lines was assessed via an MTT assay, performed as previously described. Healthy and viable cells convert the yellow soluble 3-(4,5-dimethylthiazol-2-yl)-2,5-diphenyltetrazolium bromide to the insoluble purple corresponding formazan, which can be spectrophotometrically measured. For this assay, 5000 cells (1 250 for LCLC-103H) in 0.1 mL of medium were seeded per well of a 96-well plate and incubated at standard conditions for 24 h prior to treatment. A serial dilution of the test compounds was prepared in medium, covering final concentrations from 10.0 to 0.04 µM, and 0.1 mL of the working solution was added to each well in triplicate. After 48 h, 20 µL of a 2.5 mg/mL MTT in PBS solution was pipetted into each well and further incubated for 4 h at standard conditions. Thereafter, medium was replaced with 50 µL DMSO, and the plates were put on a shaker for 5 min and subsequently read at λ = 570 nm, with a SpectraMax 384plus (Molecular Devices, Sunnyvale, CA, USA). The cell viabilities of the treatment conditions were calculated in relation to a solvent control sample. The absolute IC50 was calculated via nonlinear regression followed by interpolation of the dose–response graphs in Prism 7 (GraphPad, San Diego, CA, USA). The IC90 was derived from the IC50 by using the slope factor of the dose–response graph with the tool QuickCalcs from GraphPad (GraphPad Software, San Diego, CA, USA). […]

[2] = tested on: HAP-1, HAP-1.KO.GPx1, A2780 and Siso; assay: adapted MTT assay with ferrostatin-1 (ferroptosis); format: cell-based, human; parameters: key: no impact (0); weak impact (+); strong impact (++); details: summary grade
Experimental: Not only apoptosis may contribute to the mainly ROS-based cytotoxicity of the pentathiepins but also ferroptosis, which derives from iron-dependent oxidative damage of the cell membrane. This form of programmed cell death is initiated via lipid peroxidation, which is normally held in check by the membrane-bound GPx4, an isoform of GPx1. As pentathiepins are potent GPx1 inhibitors, we indirectly investigated the possible role of GPx4 inhibition by precluding ferroptosis. Here, cells were incubated with a serial dilution of the respective pentathiepin, and either ferrostatin-1 (Fer-1) or vehicle control (DMSO) was added; Fer-1 is an established inhibitor of ferroptosis. The cell viability was measured after 48 h, and the activity of the compounds after adding or omitting Fer-1 was compared (Figure S50).
This experiment was performed similarly to that described in the previous section. To assess the importance of ferroptosis for cell death, a co-incubation of the cells with a serial dilution of the pentathiepins and ferrostatin-1 (Fer-1) as a known inhibitor of ferroptosis was performed. As negative control, the cells were incubated with the serial dilution of the test compounds and an amount of DMSO corresponding to the Fer-1 treatment solution. If ferroptosis were to be involved in the cytotoxicity of the compounds, the addition of Fer-1 should protect cells from the treatment with pentathiepin. […] The IC50 values were calculated as described above, and Fer-1-treated cells were set in relation to those without the additive.
Figure S50: Relative IC 50 in the four human cancer cell lines HAP -1, HAP -1.KO.GPx1, A2780 and Siso after treatment with pentathiepins 1-6 with either vehicle control (DMSO) or 1.5 or 6.0 µM ferrostatin -1 (Fer -1), respectively, for 48 h. The IC 50 of Fer-1-treated cells were relat ed to DMSO-treated samples (set to 1, dashed line) […]
(1 picture or pasted object on this page, not shown here)

[3] = Homo sapiens, mean over the cell line panel, hypoxic, read-out: IC50 MTT-H, mean per compound
[4] = Homo sapiens, mean over the cell line panel, normoxic, read-out: IC50 MTT-N, mean per compound
[5] = mean over the cell line panel, normoxic, read-out: IC50 MTT-N, mean per compound

Row | Structure (SMILES) | IC50 [1, 3] [nM] | IC50 [1, 4] [nM] | IC50 [1, 5] [nM] | Cytotoxicity [1] | Ferroptosis [2] | IC50 ([1]; Homo sapiens, hypoxic conditions, in four cell lines, exceeded highest tested concentration, read-out: half-maximal inhibitory concentration) [nM]
1 | CCOc1c2c(c3cnc4[nH]c(-c5ccc(OC)cc5)cc4n13)SSSSS2 [Compound 1, 11-Ethoxy-2-(4-methoxyphenyl)-3H-[1,2,3,4,5]pentathiepino[6′,7′:3,4]pyrrolo[1,2-a]pyrrolo[2,3-e]pyrazine] | 487 | 720 | 716 | ++ | 0 | 
2 | CCOc1c2c(c3ccc(C(=O)N4CCCCC4)cn13)SSSSS2 [Compound 2, (6-Ethoxy-[1,2,3,4,5]pentathiepino[6,7-a]indolizin-9-yl)(piperidinyl)methanone] | 2190 | 1380 |  | + | 0 | 
3 | CCOc1c2c(c3ccc(C(=O)N4CCOCC4)cn13)SSSSS2 [Compound 3, (6-Ethoxy-[1,2,3,4,5]pentathiepino[6,7-a]indolizin-9-yl)(morpholino)methanone] | 1720 | 789 |  | ++ | 0 | 
4 | CCOc1c2c(c3ccc(C(=O)N(CC)CC)cn13)SSSSS2 [Compound 4, 6-Ethoxy-N,N’-diethyl-[1,2,3,4,5]pentathiepino[6,7-a]indolizine-9-carboxamide] | 2050 | 1010 |  | ++ | 0 | 
5 | CCOc1c2c(c3ccc(C(=O)N4CCN(C(=O)c5ccc(F)cc5)CC4)cn13)SSSSS2 [Compound 5, (6-Ethoxy-[1,2,3,4,5]pentathiepino[6,7-a]indolizin-9-yl)(4-(4-fluorobenzoyl)piperazinyl)methanone] | 1290 | 839 |  | ++ | 0 | 
6 | CCOc1c2c(c3ccc(C(=O)N4CCN(S(=O)(=O)c5ccc(C)cc5)CC4)cn13)SSSSS2 [Compound 6, (6-Ethoxy-[1,2,3,4,5]pentathiepino[6,7-a]indolizin-9-yl)(4-tosylpiperazinyl)methanone] | 2460 | 2360 | 2360 | + | 0 | > 10000
